Patent US10294202B2, “Pyrrolidinones as herbicides” (FMC Corporation, priority 2013, dated 2019)

How the values were obtained:
kochia [1] = test: Test A pre-/postemergence herbicide test; format: in vivo, Kochia scoparia
In short: (§1)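 Seeds in loam–sand blend received preemergence directed soil spray; separately, plants 2–10 cm at one- to two-leaf stage received postemergence spray, both with test chemicals in non-phytotoxic solvent with surfactant. After ~10 days in greenhouse, injury rated visually against untreated controls, 0 (no effect) to 100 (complete control).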

corn = test: Test A pre-/postemergence herbicide test; format: in vivo, Zea mays; conditions: Postemergence
In short: as §1

ryegrass, Italian = test: Test C pre-/postemergence herbicide test; format: in vivo, Lolium multiflorum
In short: (§2)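 Pre-emergence: seeds sown in loam/sand blend and treated with compound in surfactant-containing solvent. Post-emergence: plants at 2–18 cm (1- to 4-leaf stage) in peat-based medium sprayed with the same formulation. Visual rating versus controls after 13–15 days in greenhouse, scale 0 (no effect) to 100 (complete control).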

johnsongrass = test: Test C pre-/postemergence herbicide test; format: in vivo, Sorghum halepense
In short: as §2

morningglory = test: Test C pre-/postemergence herbicide test; format: in vivo, Ipomoea coccinea
In short: as §2

barnyardgrass = test: Test C pre-/postemergence herbicide test; format: in vivo, Echinochloa crus-galli
In short: as §2

kochia [2] = test: Test C pre-/postemergence herbicide test; format: in vivo, Kochia scoparia; conditions: Postemergence
In short: as §2

chickweed = test: Test C postemergence herbicide test; format: in vivo, Stellaria media
In short: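 Greenhouse pot plants at 2 to 18 cm height (1- to 4-leaf stage) received a postemergence application of formulated test chemical. Visual ratings against untreated controls were made after 13 to 15 days, on a 0 (no effect) to 100 (complete control) scale.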

[3] = Postemergence, 31 g ai/ha, scale 0 to 100 (0 no effect, 100 complete control)
[4] = Postemergence, 62 g ai/ha, scale 0 (no effect) to 100 (complete control)
[5] = Postemergence, 125 g ai/ha, scale 0 to 100 (0 no effect, 100 complete control)
[6] = Postemergence, 250 g ai/ha, scale 0 to 100 (0 no effect, 100 complete control)
[7] = Preemergence, 31 g ai/ha, scale 0 to 100, 0 is no effect and 100 is complete control
[8] = Preemergence, 62 g ai/ha, scale 0 to 100 (0 no effect, 100 complete control)
[9] = Preemergence, 125 g ai/ha, scale 0 to 100 (0 no effect, 100 complete control)
[10] = Preemergence, 62 g ai/ha, scale 0 to 100
[11] = 31 g ai/ha, scale 0 to 100 (0 no effect, 100 complete control)
[12] = 62 g ai/ha, scale 0 (no effect) to 100 (complete control)
[13] = 125 g ai/ha, scale 0 to 100 (0 no effect, 100 complete control)
[14] = 250 g ai/ha, scale 0 to 100 (0 no effect, 100 complete control)
[15] = 500 g ai/ha, 0 to 100 scale (0 no effect, 100 complete control)
[16] = Preemergence, 125 g ai/ha, scale 0 to 100
[17] = Preemergence, 31 g ai/ha, scale 0 to 100
[18] = Postemergence, 31 g ai/ha, scale 0 (no effect) to 100 (complete control)
[19] = Postemergence, 62 g ai/ha, scale 0 to 100 (0 no effect, 100 complete control)
[20] = 31 g ai/ha, scale 0 (no effect) to 100 (complete control)
[21] = 62 g ai/ha, scale 0 to 100 (0 no effect, 100 complete control)

O=C1NC[C@H](c2cccc(C(F)(F)F)c2)[C@H]1C(=O)Nc1ccccc1F [Compound 204, (3R,4S)—N-(2-fluorophenyl)-2-oxo-4-[3-(trifluoromethyl)phenyl]-3-pyrrolidinecarboxamide]
Plant response rating, Kochia (kochia [1]; 125 g ai/ha, visual rating, 0 to 100 scale, 0 no effect, 100 complete control, approximately 10 days, preemergence): 0 | Plant response rating, Kochia (kochia [1]; Postemergence, 125 g ai/ha, 0 to 100 scale, 0 is no effect, 100 is complete control): 20 | Kochia plant response rating (0 to 100 scale, 0 is no effect, 100 is complete control) (kochia [1]; Postemergence, 500 g ai/ha): 60 | Plant response rating, Kochia (kochia [1]; preemergence, 500 g ai/ha, 0 to 100 scale, 0 is no effect and 100 is complete control): 80 | Corn plant response rating (0 to 100 scale, 0 is no effect, 100 is complete control) (corn; 500 g ai/ha): 80 | Corn plant response rating (crop injury, 0 = no effect, 100 = complete kill) at 125 g/ha (corn; Zea mays, post-emergence, 240 h, 125 g ai/ha, 0 to 100 scale, 0 is no effect, 100 is complete control): 60% | Plant response rating, Ryegrass, Italian (ryegrass, Italian; [3]): 0 | Plant response rating, Ryegrass, Italian (ryegrass, Italian; [4]): 0 | Plant response rating, Ryegrass, Italian (ryegrass, Italian; [5]): 0 | Plant response rating, Ryegrass, Italian (ryegrass, Italian; [6]): 15 | Ryegrass, Italian plant response rating (ryegrass, Italian; [7]): 0 | Ryegrass, Italian plant response rating (ryegrass, Italian; [8]): 0 | Plant response rating, Ryegrass, Italian (ryegrass, Italian; [9]): 50 | Plant response rating (scale of 0 to 100), Ryegrass, Italian (ryegrass, Italian; Preemergence, 250 g ai/ha): 30 | Plant response rating, Johnsongrass (johnsongrass; [3]): 0 | Plant response rating, Johnsongrass (johnsongrass; [4]): 0 | Plant response rating, Johnsongrass (johnsongrass; [5]): 0 | Plant response rating, Johnsongrass (johnsongrass; [6]): 0 | Johnsongrass plant response rating (johnsongrass; [7]): 10 | Johnsongrass plant response rating (johnsongrass; [8]): 40 | Plant response rating, Johnsongrass (johnsongrass; [9]): 75 | Plant response rating (scale of 0 to 100), Johnsongrass (johnsongrass; Preemergence, 250 g ai/ha): 85 | Plant response rating, Morningglory (morningglory; [3]): 5 | Plant response rating, Morningglory (morningglory; [4]): 5 | Plant response rating, Morningglory (morningglory; [5]): 15 | Plant response rating, Morningglory (morningglory; [6]): 35 | Morningglory plant response rating (morningglory; [7]): 0 | Morningglory plant response rating (morningglory; [8]): 0 | Plant response rating, Morningglory (morningglory; [9]): 20 | Plant response rating (scale of 0 to 100), Morningglory (morningglory; Preemergence, 250 g ai/ha): 40 | Plant response rating, Barnyardgrass (barnyardgrass; [3]): 5 | Plant response rating, Barnyardgrass (barnyardgrass; [4]): 55 | Plant response rating, Barnyardgrass (barnyardgrass; [5]): 80 | Plant response rating, Barnyardgrass (barnyardgrass; [6]): 90 | Barnyardgrass plant response rating (barnyardgrass; [7]): 80 | Plant response rating, Barnyardgrass (barnyardgrass; [10]): 90 | Plant response rating, Barnyardgrass (barnyardgrass; [9]): 95 | Plant response rating (scale of 0 to 100; 0 is no effect, 100 is complete control), Barnyardgrass (barnyardgrass; Preemergence, 250 g ai/ha): 95 | Plant response rating, Kochia (kochia [2]; [11]): 10 | Plant response rating, Kochia (kochia [2]; [12]): 30 | Plant response rating, Kochia (kochia [2]; [13]): 40 | Plant response rating, Kochia (kochia [2]; [14]): 40 | Plant response rating, Chickweed (chickweed; [11]): 0 | Plant response rating, Chickweed (chickweed; [12]): 30 | Plant response rating, Chickweed (chickweed; [13]): 55 | Plant response rating, Chickweed (chickweed; [14]): 65

O=C1NCC(c2ccc(F)c(F)c2)C1C(=O)Nc1ccc(F)c(F)c1F (stereo not shown) [Compound 346]
Plant response rating, Kochia (kochia [1]; Postemergence, 125 g ai/ha, visual rating on 0 to 100 scale (0 no effect, 100 complete control), approx. 10 days): 0 | Plant response rating, Kochia (kochia [1]; Preemergence, 125 g ai/ha, 0 to 100 scale where 0 is no effect and 100 is complete control): 0 | Kochia plant response rating (kochia [1]; Preemergence, 500 g ai/ha, visual rating on 0 to 100 scale (0 no effect, 100 complete control)): 80 | Plant response rating, Corn (corn; 125 g ai/ha, visual rating on 0 to 100 scale (0 no effect, 100 complete control), approx. 10 days): 20 | Plant response rating, Corn (corn; [15]): 40 | Plant response rating, Ryegrass, Italian (ryegrass, Italian; [3]): 0 | Plant response rating, Ryegrass, Italian (ryegrass, Italian; [4]): 0 | Plant response rating, Ryegrass, Italian (ryegrass, Italian; [5]): 0 | Plant response rating, Ryegrass, Italian (ryegrass, Italian; [6]): 0 | Ryegrass, Italian plant response rating (ryegrass, Italian; [8]): 10 | Plant response rating, Ryegrass, Italian (ryegrass, Italian; [16]): 5 | Plant response rating, Ryegrass, Italian (ryegrass, Italian; [17]): 0 | Plant response rating, Johnsongrass (johnsongrass; [3]): 100 | Plant response rating, Johnsongrass (johnsongrass; [4]): 0 | Plant response rating, Johnsongrass (johnsongrass; [5]): 0 | Plant response rating, Johnsongrass (johnsongrass; [6]): 0 | Johnsongrass plant response rating (johnsongrass; [8]): 0 | Plant response rating, Johnsongrass (johnsongrass; [16]): 20 | Plant response rating (scale of 0 to 100), Johnsongrass (johnsongrass; Preemergence, 250 g ai/ha): 60 | Plant response rating, Johnsongrass (johnsongrass; [17]): 0 | Plant response rating, Morningglory (morningglory; [3]): 0 | Plant response rating, Morningglory (morningglory; [4]): 5 | Plant response rating, Morningglory (morningglory; [5]): 15 | Plant response rating, Morningglory (morningglory; [6]): 5 | Morningglory plant response rating (morningglory; [8]): 0 | Plant response rating, Morningglory (morningglory; [16]): 30 | Plant response rating (scale of 0 to 100), Morningglory (morningglory; Preemergence, 250 g ai/ha): 0 | Plant response rating, Morningglory (morningglory; [17]): 0 | Plant response rating, Barnyardgrass (barnyardgrass; [3]): 0 | Plant response rating, Barnyardgrass (barnyardgrass; [4]): 0 | Plant response rating, Barnyardgrass (barnyardgrass; [5]): 30 | Plant response rating, Barnyardgrass (barnyardgrass; [6]): 60 | Barnyardgrass plant response rating (barnyardgrass; [8]): 70 | Plant response rating, Barnyardgrass (barnyardgrass; [9]): 95 | Plant response rating (scale of 0 to 100; 0 is no effect, 100 is complete control), Barnyardgrass (barnyardgrass; Preemergence, 250 g ai/ha): 98 | Plant response rating, Barnyardgrass (barnyardgrass; [17]): 50 | Plant response rating, Kochia (kochia [2]; [11]): 45 | Plant response rating, Kochia (kochia [2]; [12]): 50 | Plant response rating, Kochia (kochia [2]; [13]): 45 | Plant response rating, Kochia (kochia [2]; [14]): 40 | Plant response rating, Chickweed (chickweed; [11]): 40 | Plant response rating, Chickweed (chickweed; [12]): 65 | Plant response rating, Chickweed (chickweed; [13]): 40 | Plant response rating, Chickweed (chickweed; [14]): 85

Cc1ccccc1NC(=O)C1C(=O)NCC1c1cccc(C(F)(F)F)c1 (racemic) [Compound 109]
Plant response rating, Kochia (kochia [1]; Postemergence, 125 g ai/ha, 0 to 100 scale, 0 no effect, 100 complete control): 0 | Plant response rating, Kochia (kochia [1]; Postemergence, 500 g ai/ha, 0 to 100 scale (0 no effect, 100 complete control)): 0 | Kochia plant response rating (kochia [1]; Preemergence, 125 g ai/ha, visual rating on 0 to 100 scale (0 no effect, 100 complete control)): 0 | Plant response rating, Kochia (kochia [1]; preemergence, 500 g ai/ha, 0 to 100 scale): 0 | Plant response rating, Corn (corn; 125 g ai/ha, 0 to 100 scale, 0 no effect, 100 complete control): 50 | Plant response rating, Corn (corn; [15]): 80 | Plant response rating, Ryegrass, Italian (ryegrass, Italian; [18]): 0 | Plant response rating, Ryegrass, Italian (ryegrass, Italian; [19]): 0 | Plant response rating, Ryegrass, Italian (ryegrass, Italian; [5]): 0 | Plant response rating, Ryegrass, Italian (ryegrass, Italian; [6]): 0 | Ryegrass, Italian plant response rating (ryegrass, Italian; [7]): 0 | Plant response rating, Ryegrass, Italian (ryegrass, Italian; [10]): 40 | Plant response rating, Ryegrass, Italian (ryegrass, Italian; [9]): 20 | Plant response rating (scale of 0 to 100), Ryegrass, Italian (ryegrass, Italian; Preemergence, 250 g ai/ha): 70 | Plant response rating, Johnsongrass (johnsongrass; [18]): 0 | Plant response rating, Johnsongrass (johnsongrass; [19]): 0 | Plant response rating, Johnsongrass (johnsongrass; [5]): 0 | Plant response rating, Johnsongrass (johnsongrass; [6]): 0 | Johnsongrass plant response rating (johnsongrass; [7]): 0 | Plant response rating, Johnsongrass (johnsongrass; [10]): 10 | Plant response rating, Johnsongrass (johnsongrass; [9]): 40 | Plant response rating (scale of 0 to 100), Johnsongrass (johnsongrass; Preemergence, 250 g ai/ha): 70 | Plant response rating, Morningglory (morningglory; [18]): 20 | Plant response rating, Morningglory (morningglory; [19]): 0 | Plant response rating, Morningglory (morningglory; [5]): 5 | Plant response rating, Morningglory (morningglory; [6]): 15 | Morningglory plant response rating (morningglory; [7]): 0 | Plant response rating, Morningglory (morningglory; [10]): 0 | Plant response rating, Morningglory (morningglory; [9]): 5 | Plant response rating (scale of 0 to 100), Morningglory (morningglory; Preemergence, 250 g ai/ha): 30 | Plant response rating, Barnyardgrass (barnyardgrass; [18]): 0 | Plant response rating, Barnyardgrass (barnyardgrass; [19]): 0 | Plant response rating, Barnyardgrass (barnyardgrass; [5]): 0 | Plant response rating, Barnyardgrass (barnyardgrass; [6]): 45 | Barnyardgrass plant response rating (barnyardgrass; [7]): 70 | Plant response rating, Barnyardgrass (barnyardgrass; [10]): 85 | Plant response rating, Barnyardgrass (barnyardgrass; [9]): 95 | Plant response rating (scale of 0 to 100; 0 is no effect, 100 is complete control), Barnyardgrass (barnyardgrass; Preemergence, 250 g ai/ha): 98 | Plant response rating, Kochia (kochia [2]; [20]): 0 | Plant response rating, Kochia (kochia [2]; [21]): 0 | Plant response rating, Kochia (kochia [2]; [13]): 0 | Plant response rating, Kochia (kochia [2]; [14]): 0 | Plant response rating, Chickweed (chickweed; [20]): 0 | Plant response rating, Chickweed (chickweed; [21]): 0 | Plant response rating, Chickweed (chickweed; [13]): 0 | Plant response rating, Chickweed (chickweed; [14]): 0
